Data set [1] addresses T1, Heat shock factor protein 1 (Mus musculus, UniProt P38532).
T1 sequence (P38532 whole entry): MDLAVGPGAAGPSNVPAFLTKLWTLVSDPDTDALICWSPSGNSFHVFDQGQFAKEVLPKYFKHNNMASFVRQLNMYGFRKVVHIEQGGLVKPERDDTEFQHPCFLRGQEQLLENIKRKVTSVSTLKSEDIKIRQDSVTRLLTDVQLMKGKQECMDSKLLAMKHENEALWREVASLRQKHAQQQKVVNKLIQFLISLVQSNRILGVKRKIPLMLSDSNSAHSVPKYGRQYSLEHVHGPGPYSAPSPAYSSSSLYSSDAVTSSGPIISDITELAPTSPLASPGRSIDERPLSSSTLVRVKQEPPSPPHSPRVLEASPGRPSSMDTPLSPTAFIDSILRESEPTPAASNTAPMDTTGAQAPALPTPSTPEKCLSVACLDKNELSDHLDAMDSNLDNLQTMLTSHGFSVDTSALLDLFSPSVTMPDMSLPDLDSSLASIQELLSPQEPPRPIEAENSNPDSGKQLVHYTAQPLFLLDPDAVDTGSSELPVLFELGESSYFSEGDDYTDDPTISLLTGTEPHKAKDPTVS
Description: HSF1 potentiators in luciferase reporter cells, confirmation, cell-based, NIH3T3, luminescence, dose retest (AID 435004).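 Also: stress induced by proteasome inhibitor MG132 added 30 min after compound; luciferase reporter driven by HSF1 response element in NIH3T3 cells; actives raise luminescence as potentiators of the MG132 stress response.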 The class given is functional. (In general: A reporter such as luciferase makes a cellular process visible.)

A further data set concerns H4. The data set is described as follows: Luminescence Cell-Based Dose Response HTS to Identify Activators of 5'UTR Stem-Loop Driven Prion Protein mRNA Translation in H4 Neuroglioblastoma Cells. [Related pubchem assays: 1829 (Project Summary), 1814 (Primary HTS)]. Format: functional. The settings on record: Homo sapiens.
Data set [2] can be described thus: Luminescence Cell-Based Dose Confirmation HTS to Identify Activators of 5'UTR Stem-Loop Driven Alpha-Synuclein mRNA Translation in H4 Neuroglioblastoma Cells. [Related pubchem assays: 1829 (Project Summary), 1814 (Primary HTS)]. Format: functional.
Data set [3] can be described thus: Luminescence Cell-Based Dose Response HTS to Identify Activators of Luciferase Translation or Activity in H4 […] Cells. [Related pubchem assays: 1829 (Project Summary), 1814 (Primary HTS)]. Format: functional.
Another data set relates to H9c2. Description: cells. The class given is functional, cell-based. The conditions noted are these: Rattus norvegicus, H9c2, Myocardium.
Another data set concerns the target Cytochrome P450 2C19 (Homo sapiens, UniProt P33261). The data set is described as follows: Cytochrome panel assay with activity outcomes. Panel member name: p450-cyp2c19 Compounds with AC50 equal or less than 10 uM are considered active. The class given is functional.
The target in the next data set is Cytochrome P450 3A4 (Homo sapiens, UniProt P08684).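 Also: CYP3A4 tested as one member of a cytochrome P450 panel screen.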
A further data set deals with T2, Cytochrome P450 1A2 (Homo sapiens, UniProt P05177).
T2 sequence (P05177 whole entry): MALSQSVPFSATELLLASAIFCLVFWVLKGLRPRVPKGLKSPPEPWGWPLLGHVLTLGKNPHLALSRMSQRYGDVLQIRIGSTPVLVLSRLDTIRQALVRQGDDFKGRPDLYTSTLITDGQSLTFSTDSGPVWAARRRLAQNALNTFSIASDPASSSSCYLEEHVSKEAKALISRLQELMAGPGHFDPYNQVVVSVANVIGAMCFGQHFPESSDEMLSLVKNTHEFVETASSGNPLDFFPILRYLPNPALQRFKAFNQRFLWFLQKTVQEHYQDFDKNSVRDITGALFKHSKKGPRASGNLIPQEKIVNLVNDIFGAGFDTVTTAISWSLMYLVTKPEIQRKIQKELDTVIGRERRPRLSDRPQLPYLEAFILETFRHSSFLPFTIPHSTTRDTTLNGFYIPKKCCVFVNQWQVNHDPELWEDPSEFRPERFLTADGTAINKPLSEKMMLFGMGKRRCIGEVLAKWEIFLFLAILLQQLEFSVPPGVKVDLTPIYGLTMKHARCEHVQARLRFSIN

The source made the active and inactive calls. Some results are limits rather than exact numbers.
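For IC50 in this document: confirmatory concentration-response retest of ultra-high-throughput screening hits for modulation of myocardial damage; cell death induced by hydrogen peroxide oxidative stress; compound pretreatment for 60 min then peroxide exposure for 2 h; potency is for protecting the cells against peroxide damage rather than for killing them.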

Sequence of Cytochrome P450 2C19 (P33261 whole entry): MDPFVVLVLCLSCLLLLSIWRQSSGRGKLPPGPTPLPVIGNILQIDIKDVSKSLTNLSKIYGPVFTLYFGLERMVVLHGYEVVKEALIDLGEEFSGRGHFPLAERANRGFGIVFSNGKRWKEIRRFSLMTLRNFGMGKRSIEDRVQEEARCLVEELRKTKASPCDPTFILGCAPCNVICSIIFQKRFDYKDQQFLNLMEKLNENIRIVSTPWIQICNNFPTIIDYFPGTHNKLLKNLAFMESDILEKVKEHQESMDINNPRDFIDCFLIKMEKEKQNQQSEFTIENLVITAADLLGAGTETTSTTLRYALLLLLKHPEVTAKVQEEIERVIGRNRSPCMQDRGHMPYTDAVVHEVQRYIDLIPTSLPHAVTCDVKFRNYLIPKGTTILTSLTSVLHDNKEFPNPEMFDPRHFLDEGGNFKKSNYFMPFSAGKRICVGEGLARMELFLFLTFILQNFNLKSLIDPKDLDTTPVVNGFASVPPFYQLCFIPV
Sequence of Cytochrome P450 3A4 (P08684 whole entry): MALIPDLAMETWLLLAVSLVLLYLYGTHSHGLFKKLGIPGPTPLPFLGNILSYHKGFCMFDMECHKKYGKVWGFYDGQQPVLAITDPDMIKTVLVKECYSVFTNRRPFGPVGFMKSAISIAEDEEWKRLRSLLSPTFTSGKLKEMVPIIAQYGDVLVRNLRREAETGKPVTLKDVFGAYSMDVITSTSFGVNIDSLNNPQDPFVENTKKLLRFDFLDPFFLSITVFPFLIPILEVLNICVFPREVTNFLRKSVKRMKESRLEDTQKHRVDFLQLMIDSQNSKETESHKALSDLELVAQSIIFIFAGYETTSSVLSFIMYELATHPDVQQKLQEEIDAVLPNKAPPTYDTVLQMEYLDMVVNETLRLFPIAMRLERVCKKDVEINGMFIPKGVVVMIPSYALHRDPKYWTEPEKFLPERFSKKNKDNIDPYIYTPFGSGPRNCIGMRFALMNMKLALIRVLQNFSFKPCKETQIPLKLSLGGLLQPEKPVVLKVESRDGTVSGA

For the compound `CC(OC(=O)/C=C/c1ccc2ccccc2n1)C(=O)NCc1ccccc1` (stereo unspecified), in data set [1], the EC50 was 13.3 µM (active). `COc1ccc(-c2cn3c(C)c(C(=O)NC(C)(C)C)sc3n2)cc1`: the values for the EC50 (in the data set on H4; in data set [2]; in data set [3]) were > 120 µM (not active), 1.06 µM (active) and 31.5 µM (active), respectively. On to `Cn1c(C(=O)NCc2cccs2)cc2c(=O)n(C)c3ccccc3c21`, for which the IC50 in the data set on H9c2 is > 79 µM (inactive). As for `CC[N+](C)(CC)CCN1C(=O)c2ccccc2S1(=O)=O`, the AC50 result at Cytochrome P450 2C19 is given as “inconclusive”.

For `CC1(C)Cc2nc(NCCN3CCOCC3)c(C#N)cc2CO1`, the EC50 in data set [1] was > 260 µM (inactive).

As for `COC(=O)c1ccccc1S(=O)(=O)N(Cc1ccco1)Cc1cc2cc(OC)ccc2nc1O`, the IC50 with H9c2 was > 79 µM (inactive). `CC(C)(C)c1ccc(C(=O)NC(=S)Nn2cnnc2)cc1`: the EC50 with H4 is 30.1 µM (active); in data set [2] it was > 120 µM (not active); in data set [3], 69.9 µM (active). As for `COC(=O)c1ccc(N(CC(=O)NC2CCCCC2)C(=O)CNC(=O)c2ccco2)cc1`, the EC50 in data set [1] was > 260 µM (inactive). Take `CCN(CC)CCNC(=O)CCc1nnc(O)c2ccccc12`: in the data set on H9c2, the IC50 was > 79 µM (inactive). As for `O=C(CSc1nn(-c2ccc(F)cc2)c(=S)s1)N1CCN(C(=O)c2ccco2)CC1`, the EC50 in data set [1] is > 260 µM (inactive). `COc1cc2c(cc1NC(=O)CSc1nccn1C)oc1ccccc12`: the EC50 is 27.6 µM (active) in the data set on H4, 13 µM (active) in data set [2] and 7.9 µM (active) in data set [3]. In the case of `CCCN1CCC(=NNc2ccc(C(=O)O)cc2)CC1`, the EC50 in the data set on H4 was 10.7 µM (active); in data set [2] it was 7.27 µM (active); in data set [3], 30.4 µM (active). As to `Cc1ccc(S(=O)(=O)N(C)C)cc1NC(=O)COC(=O)c1c(C)noc1C`, the EC50 in data set [1] is > 260 µM (inactive). With `CN(CC(=O)Nc1ccccc1Br)C(=O)Cn1[nH]c(=O)c2ccccc2c1=O`, in the data set with H9c2, the IC50 was > 79 µM (inactive). Regarding `COC(=O)c1ccc(/N=C/c2c(C(F)(F)F)n[nH]c2O)cc1`, the EC50 (with H4; in data set [2]; in data set [3]) was > 120 µM (not active) throughout. In the case of `Cc1ccc(C(=O)NC2CCCN(c3ccc(C(F)(F)F)cn3)C2)cn1` (stereo unspecified), the EC50 in data set [1] was > 260 µM (inactive).

For `CS(=O)(=O)Nc1ccc(-c2ccc3nccn3c2)cc1`, the IC50 in the data set on H9c2 was > 79 µM (inactive). Take `CCOc1ccc(-n2cc(C(=O)N3CCC(C)CC3)c3cc(OC)c(OC)cc3c2=O)cc1`: the EC50 in data set [1] was > 260 µM (inactive). On to `COc1ccc(OC)c(C(=O)CSc2nnc(Cc3cccs3)n2CCc2ccccc2)c1`, for which the AC50 on Cytochrome P450 3A4 is 39.8 µM (inconclusive); on Cytochrome P450 1A2, 7.08 µM (inconclusive). Regarding `CC1SCC(=NOCc2ccccc2)CS1` (stereo unspecified), the EC50 in the data set on H4 was 18.2 µM (active); in data set [2], 14.5 µM (active); in data set [3], 17.7 µM (active).

On to `O=[N+]([O-])c1ccc(N/N=C2\CC3CC=CC23)cc1` (stereo unspecified), for which the EC50 in the data set on H4 was 24.3 µM (active); in data set [2] it was 15.2 µM (active); in data set [3] it was 13.2 µM (active). Turning to `Cc1nn(CCOc2ccccc2)c(=O)n1-c1c(F)cccc1F`, the EC50 with H4 is 32.2 µM (active); in data set [2] it was 15.3 µM (active); in data set [3], > 120 µM (not active). Regarding `CC(C(=O)NC1CCCC1)N(C(=O)Cn1nnc(-c2ccc(F)cc2)n1)c1ccccc1F` (stereo unspecified), in the data set with H9c2, the IC50 was > 79 µM (inactive). Take `O=C1[C@H]2[C@@H](c3ccc(C(F)(F)F)cc3)N[C@]3(CCCN(Cc4ccc(F)cc4)C3=O)[C@H]2C(=O)N1Cc1ccccc1`: in the data set with H9c2, the IC50 was > 79 µM (inactive). In the case of `C[C@]12CC[C@H](O)C[C@@H]1CC[C@H]1[C@H]2CC[C@]2(C)[C@H](C(=O)CO)CC[C@@H]12`, the AC50 at Cytochrome P450 3A4 is 1 µM (inconclusive). As for `CCOC(=O)c1cnc(-c2ccccc2)nc1Oc1ccc(C)cc1`, in data set [1], the EC50 is > 260 µM (inactive).

As to `O=C(CCn1c(=S)[nH]c2ccccc2c1=O)NCCCN1CCOCC1`, the AC50 on Cytochrome P450 3A4 was 7.08 µM (inconclusive). Turning to `O=[N+]([O-])c1cccc(/C=N/N2CCN(Cc3ccccc3)CC2)c1`, the EC50 is 20.2 µM (active) with H4, 14.7 µM (active) in data set [2] and 20.8 µM (active) in data set [3]. With `O=C(Nc1ccccc1)N[C@H]1C[C@H](C(=O)O)Nc2cc(Cl)cc(Cl)c21`, the AC50 at Cytochrome P450 3A4 is 25.1 µM (inconclusive); on Cytochrome P450 1A2 it was 39.8 µM (inconclusive); on Cytochrome P450 2C19 (read-out: AC50) it was 25.1 µM (inconclusive). Regarding `COc1cccc(NC(=O)CN(C)C(=O)Cc2nnc(O)c3ccccc23)c1`, in the data set on H9c2, the IC50 is > 79 µM (inactive). As for `Cc1nc(SCC(=O)N2CCN(c3ccccc3)CC2)c2oc3ccccc3c2n1`, the IC50 with H9c2 is > 79 µM (inactive).

Consider `CC(C)C(=O)Nc1ccc(NC(=O)c2cccnc2)cn1`, for which the AC50 at Cytochrome P450 2C19 (read-out: AC50) is 7.08 µM (inconclusive). Regarding `COC(=O)c1cc(S(=O)(=O)N2CCN(c3ccc([N+](=O)[O-])cc3)CC2)c[nH]1`, the EC50 in data set [1] was > 260 µM (inactive). In the case of `COc1ccccc1NC(=O)COc1ccc(/C=N/NC(=O)c2cccnc2)cc1`, the half-maximal inhibitory concentration (IC50) in the data set on H9c2 was 17.2 µM (active). On to `O=S(=O)(N/N=C\c1cccn1-c1ccccc1)c1ccc2ccccc2c1`, for which the AC50 on Cytochrome P450 2C19 (read-out: AC50) is 0.794 µM (inconclusive). `COc1cc(/C=N/N2C(=O)c3ccccc3NC2(C)c2cccc([N+](=O)[O-])c2)cc(Br)c1O` (stereo unspecified): the EC50 in data set [1] was 34.1 µM (active).

As to `O=C(/C=C/c1ccc(Cl)cc1)NCCN1CCOCC1`, the AC50 entry at Cytochrome P450 2C19 was “inconclusive”. As to `COc1ccc(-c2nc3cnc(N(C)C)nc3n(C[C@H]3CCCO3)c2=O)cc1`, the AC50 at Cytochrome P450 3A4 was 6.31 µM (inconclusive).

As for `N[C@@H](CSS(=O)(=O)O)C(=O)O`, the AC50 is 39.8 µM (inconclusive) at Cytochrome P450 1A2 and 7.94 µM (inconclusive) on Cytochrome P450 2C19 (read-out: AC50). `Cc1ccc(/C=C/C(=O)Nc2ccc(S(=O)(=O)Nc3cc(C)nc(C)n3)cc2)cc1`: in data set [1], the EC50 was > 260 µM (inactive). `Cc1cc(SCC(=O)NCCN2C(=O)CSC2=O)nc2ccccc12`: the EC50 (with H4; in data set [2]; in data set [3]) was > 120 µM (not active) in each case. Take `CC(OC(=O)CCc1nc(O)c2ccccc2n1)C(=O)Nc1ccc2c(c1)OCO2` (stereo unspecified): the IC50 in the data set with H9c2 was 39.1 µM (inactive). Consider `O=C(NCCNc1ccc([N+](=O)[O-])cc1)c1ccccc1Br`, for which, on Cytochrome P450 3A4, the AC50 is 28.2 µM (inconclusive). For the compound `O=C1/C(=C\c2ccc(Br)o2)S/C(=N/c2ccccc2)N1c1ccccc1`, the AC50 on Cytochrome P450 2C19 (read-out: AC50) is 7.94 µM (inconclusive). For `C=CCN1C(=O)NC(=O)/C(=C(/CC)Nc2ccc3c(c2)CCC3)C1=O`, in data set [1], the EC50 was > 260 µM (inactive).

With `COc1cc2[nH]c(C(=O)Nc3ccc(F)cc3)cc2c(OC)c1OC`, the EC50 with H4 was > 120 µM (not active); in data set [2], > 120 µM (not active); in data set [3], 9.27 µM (active).

For `CC(C)c1ccc(N2C(=O)[C@@H]3Cc4ccccc4CN3C2=O)cc1`, the EC50 in the data set on H4 is > 120 µM (not active); in data set [2], > 120 µM (not active); in data set [3], 45 µM (active).

As for `COc1ccc(C=CC(=O)c2ccc3cc(OC)c(OC)cc3c2)cc1OC`, in the data set on H9c2, the IC50 was > 79 µM (inactive). On to `Cc1cc(NC(=O)NC(=O)c2ccccc2)no1`, for which the results for the EC50 (in the data set with H4; in data set [2]; in data set [3]) were 42.3 µM (inconclusive), 3.66 µM (active) and 7.68 µM (active), respectively. For the compound `CCn1ncc2c1C(=O)NC1c3ccccc3C(=O)N21` (stereo unspecified), the IC50 in the data set with H9c2 was 32 µM (inactive). For the compound `COc1cccc(C2C(C(N)=O)=C(C)Nc3nc(-c4cccc(Cl)c4)nn32)c1` (stereo unspecified), the EC50 in data set [1] was 71.9 µM (active).

The EC50 is the concentration giving half of the maximal effect. As a reminder, the IC50 is the midpoint of a concentration-inhibition curve. What is called AC50 is the midpoint of the concentration-response curve, whichever way the signal moves.
